Assays:
[1] = tested on: Hepatitis C virus; test: microbe, parasite or virus in culture; format: functional, organism-based, Hepacivirus hominis, subtype 1a, Huh-lunet; details: Hepatitis C virus, subtype 1a, Huh-lunet, 96 h
Description: Antiviral activity against HCV-1a infected in human Huh-lunet cells after 4 days by luciferase based replicon assay

[2] = tested on: Hepatitis C virus; test: microbe, parasite or virus in culture; format: functional, organism-based, Hepacivirus hominis, genotype 1b, Huh-luc/neo-ET; details: Hepatitis C virus, genotype 1b, Huh-luc/neo-ET, 72 h
Description: Antiviral activity against HCV-1b infected human Huh-luc/neo-ET replicon cells after 72 hrs by luciferase based replicon assay

[3] = in vitro; details: human, t1/2
[4] = in vitro; details: human
Description: Metabolic stability in human liver microsomes assessed as compound remaining after 60 mins at 1 uM

SMILES	EC50 [1]	EC50 [2]	half-life at 1 µM ([3]; liver microsomes)	remaining at 1 h, 1 µM ([4]; liver microsomes)	remaining at 1 h, 1 µM ([4]; microsomes)	half-life at 1 µM ([3]; microsomes)
CC(C)CCN1C(=O)C(C2=NS(=O)(=O)c3cc(NS(C)(=O)=O)ccc3N2)=C(O)[C@@H]2[C@H]3CC[C@H](C3)[C@@H]21	72 nM	12 nM	0.617 h			
CS(=O)(=O)Nc1ccc2c(c1)S(=O)(=O)N=C(C1=C(O)[C@@H]3[C@H]4CC[C@H](C4)[C@@H]3N(Cc3ccc(F)c(F)c3F)C1=O)N2	260 nM	15 nM	> 1 h	100%		
CS(=O)(=O)Nc1ccc2c(c1)S(=O)(=O)N=C(C1=C(O)[C@@H]3C4CCC(CC4)[C@@H]3N(Cc3ccccc3Cl)C1=O)N2	660 nM	17 nM	> 1 h	100%		
CS(=O)(=O)Nc1ccc2c(c1)S(=O)(=O)N=C(C1=C(O)[C@@H]3C4CCC(CC4)[C@@H]3N(Cc3ccc(Cl)cc3)C1=O)N2	250 nM	31 nM	> 1 h	100%		
CS(=O)(=O)Nc1ccc2c(c1)S(=O)(=O)N=C(C1=C(O)[C@@H]3C4CCC(CC4)[C@@H]3N(Cc3cccs3)C1=O)N2	120 nM	6 nM	0.85 h			
CS(=O)(=O)Nc1ccc2c(c1)S(=O)(=O)N=C(C1=C(O)[C@@H]3C4CCC(CC4)[C@@H]3N(CC(F)(F)F)C1=O)N2	60 nM	4 nM				0.1 h
Cc1cc(CN2C(=O)C(C3=NS(=O)(=O)c4cc(NS(C)(=O)=O)ccc4N3)=C(O)[C@@H]3C4CCC(CC4)[C@@H]32)ccc1F	16 nM	2 nM	> 1 h	81%		
COc1cc(CN2C(=O)C(C3=NS(=O)(=O)c4cc(NS(C)(=O)=O)ccc4N3)=C(O)[C@@H]3C4CCC(CC4)[C@@H]32)ccc1F	21 nM	2 nM	> 1 h	67%		
CS(=O)(=O)Nc1ccc2c(c1)S(=O)(=O)N=C(C1=C(O)[C@@H]3[C@@H]4CC[C@@H](C4)[C@@H]3N(Cc3cccs3)C1=O)N2	820 nM	27 nM			63%	> 1 h
CS(=O)(=O)Nc1ccc2c(c1)S(=O)(=O)N=C(C1=C(O)[C@@H]3C4CCC(CC4)[C@@H]3N(Cc3ccc(F)cc3F)C1=O)N2	280 nM	2 nM	> 1 h	100%		
CS(=O)(=O)Nc1ccc2c(c1)S(=O)(=O)N=C(C1=C(O)[C@@H]3[C@H]4CC[C@H](C4)[C@@H]3N(Cc3cccs3)C1=O)N2	66 nM	18 nM			81%	> 1 h
CS(=O)(=O)Nc1ccc2c(c1)S(=O)(=O)N=C(C1=C(O)[C@@H]3C4CCC(CC4)[C@@H]3N(Cc3cc(Cl)ccc3F)C1=O)N2		80 nM	> 1 h	100%		
CS(=O)(=O)Nc1ccc2c(c1)S(=O)(=O)N=C(C1=C(O)[C@@H]3C4CCC(CC4)[C@@H]3N(CC3CCCCC3)C1=O)N2	55 nM	11 nM				0.833 h
CS(=O)(=O)Nc1ccc2c(c1)S(=O)(=O)N=C(C1=C(O)[C@@H]3[C@@H]4CC[C@@H](C4)[C@@H]3N(Cc3ccc(F)c(F)c3F)C1=O)N2		46 nM	> 1 h	87%		
CS(=O)(=O)Nc1ccc2c(c1)S(=O)(=O)N=C(C1=C(O)[C@@H]3C4CCC(CC4)[C@@H]3N(Cc3cccc(F)c3F)C1=O)N2		82 nM	> 1 h	75%		
CC(C)(C)CCN1C(=O)C(C2=NS(=O)(=O)c3cc(NS(C)(=O)=O)ccc3N2)=C(O)[C@@H]2[C@H]3CC[C@H](C3)[C@@H]21	180 nM	20 nM				0.0667 h

Continued, values first:

EC50 [1]	EC50 [2]	half-life at 1 µM ([3]; liver microsomes)	remaining at 1 h, 1 µM ([4]; liver microsomes)	remaining at 1 h, 1 µM ([4]; microsomes)	half-life at 1 µM ([3]; microsomes)	SMILES
110 nM	13 nM	> 1 h	97%			CS(=O)(=O)Nc1ccc2c(c1)S(=O)(=O)NC(C1=C(O)[C@@H]3[C@@H]4CC[C@@H](C4)[C@@H]3N(Cc3ccc(F)c(F)c3)C1=O)=N2
340 nM	10 nM	> 1 h	90%			CS(=O)(=O)Nc1ccc2c(c1)S(=O)(=O)NC(C1=C(O)[C@@H]3[C@@H]4CC[C@@H](C4)[C@@H]3N(Cc3ccccc3)C1=O)=N2
98 nM	4 nM			88%	> 1 h	CS(=O)(=O)Nc1ccc2c(c1)S(=O)(=O)N=C(C1=C(O)[C@@H]3C4CCC(CC4)[C@@H]3N(Cc3cccc(F)c3)C1=O)N2
290 nM	22 nM			96%	> 1 h	CS(=O)(=O)Nc1ccc2c(c1)S(=O)(=O)NC(C1=C(O)[C@@H]3[C@@H]4CC[C@@H](C4)[C@@H]3N(Cc3cccc(F)c3)C1=O)=N2
270 nM	5 nM	> 1 h	50%			COc1cccc(CN2C(=O)C(C3=NS(=O)(=O)c4cc(NS(C)(=O)=O)ccc4N3)=C(O)[C@@H]3C4CCC(CC4)[C@@H]32)c1
46 nM	10 nM			66%	> 1 h	COc1cc(CN2C(=O)C(C3=NS(=O)(=O)c4cc(NS(C)(=O)=O)ccc4N3)=C(O)[C@@H]3[C@H]4CC[C@H](C4)[C@@H]32)ccc1F
	63 nM	> 1 h	83%			CS(=O)(=O)Nc1ccc2c(c1)S(=O)(=O)N=C(C1=C(O)[C@@H]3[C@@H]4CC[C@@H](C4)[C@@H]3N(Cc3ccccc3F)C1=O)N2
33 nM	5 nM			98%	> 1 h	CS(=O)(=O)Nc1ccc2c(c1)S(=O)(=O)N=C(C1=C(O)[C@@H]3[C@H]4CC[C@H](C4)[C@@H]3N(Cc3ccc(F)cc3Cl)C1=O)N2
87 nM	9 nM	> 1 h	65%			Cc1cc(CN2C(=O)C(C3=Nc4ccc(NS(C)(=O)=O)cc4S(=O)(=O)N3)=C(O)[C@@H]3[C@@H]4CC[C@@H](C4)[C@@H]32)ccc1F
	70 nM	> 1 h	61%			COc1cccc(CN2C(=O)C(C3=NS(=O)(=O)c4cc(NS(C)(=O)=O)ccc4N3)=C(O)[C@@H]3[C@H]4CC[C@H](C4)[C@@H]32)c1
	770 nM	> 1 h	78%			Cc1ccc(CN2C(=O)C(C3=NS(=O)(=O)c4cc(NS(C)(=O)=O)ccc4N3)=C(O)[C@@H]3[C@H]4CC[C@H](C4)[C@@H]32)cc1F
	55 nM			100%	> 1 h	CS(=O)(=O)Nc1ccc2c(c1)S(=O)(=O)N=C(C1=C(O)[C@@H]3[C@@H]4CC[C@@H](C4)[C@@H]3N(Cc3ccc(F)cc3F)C1=O)N2
	29 nM	> 1 h	80%			CS(=O)(=O)Nc1ccc2c(c1)S(=O)(=O)N=C(C1=C(O)[C@@H]3[C@H]4CC[C@H](C4)[C@@H]3N(Cc3ccccc3)C1=O)N2
